According to PMC5976250 (The Biochemical journal, 2017):

Assays:
[1] = tested on: full-length Cx45 (mCx45-Rluc) interaction with Venus–CaM; experiment: BRET assay of CaM–Cx45 interaction in live HEK293 cells; format: cell-based, mouse (Cx45); rat (CaM); details: 50 μM BAPTA-AM
[2] = tested on: electrical uncoupling (gap junctions), amphibian embryonic cells, crayfish axons; details: cited from earlier work; for effect on uncoupling: Xenopus embryonic cells, ref [73], crayfish axons, ref [74],[75]
CaM [3] = details: α-family; ref [34],[49]; cited from earlier work
CaM [4] = target: T1, CaM (Rattus norvegicus, UniProt P0DP29); details: earlier connexin peptide studies; ref [49]; cited from earlier work
CaM [5] = target: T1, CaM; details: complex formation; ref [49]; listed as Cx50-derived peptide; cited from earlier work

Compound: CC(=O)OCOC(=O)CN(CC(=O)OCOC(C)=O)c1ccccc1OCCOc1ccccc1N(CC(=O)OCOC(C)=O)CC(=O)OCOC(C)=O [BAPTA-AM]
- intracellular Ca2+ after treatment [1]: ~ 0.27 nM
- BRET signal (ratio 525/460 nm) after treatment ([1]; 20 min): ~ 0.03

Compound: Cl.NCCCCCCNS(=O)(=O)c1cccc2c(Cl)cccc12 [W7, N-(6-aminohexyl)-5-chloro-1-naphthalenesulfonamide hydrochloride]
- effect on uncoupling [2]: prevent uncoupling

Compound: Clc1ccc(C(c2ccc(Cl)cc2)n2cc[n+](CC(OCc3ccc(Cl)cc3Cl)c3ccc(Cl)cc3Cl)c2)cc1 (centres unmarked) [calmidazolium]
- effect on uncoupling [2]: prevent uncoupling

Compound: CN1CCN(CCCN2c3ccccc3Sc3ccc(C(F)(F)F)cc32)CC1 [trifluoperazine (TFP), trifluoperazine]
- effect on electrical uncoupling of amphibian embryonic cells ([2]; ref [72]): protected amphibian embryonic cells from electrical uncoupling

Compound: Cx43p136–158: α-family connexin Cx43 peptide
- binding mode to CaM (literature) (CaM [3]): compact form
- chemical shift change pattern of CaM (literature) (CaM [4]): localized change

Compound: Cx44p132–153: α-family connexin Cx44 peptide
- binding mode to CaM (literature) (CaM [3]): compact form

Compound: Cx50p141–166: α-family connexin Cx50 peptide (FRLEGTLLRTYICHIIFKTLFEVGFI; UniProt P48165 141-166, looked up, fragment)
- binding mode to CaM (literature) (CaM [3]): embraced compact form
- chemical shift change pattern of CaM (literature) (CaM [4]): localized change
- decrease in hydrodynamic radius of CaM (CaM [5]): decreased significantly
